This is an account of results in paper PMC9120017, “Inhibition mechanism of the chloride channel TMEM16A by the pore blocker 1PBC” (Nature Communications, 2022).

This experiment has as its target T1, mouse TMEM16F (Mus musculus, UniProt Q6P9J9).
T1 construct: expressed in transfected cells; host or cells: HEK293T
T1 sequence (Q6P9J9 1-911): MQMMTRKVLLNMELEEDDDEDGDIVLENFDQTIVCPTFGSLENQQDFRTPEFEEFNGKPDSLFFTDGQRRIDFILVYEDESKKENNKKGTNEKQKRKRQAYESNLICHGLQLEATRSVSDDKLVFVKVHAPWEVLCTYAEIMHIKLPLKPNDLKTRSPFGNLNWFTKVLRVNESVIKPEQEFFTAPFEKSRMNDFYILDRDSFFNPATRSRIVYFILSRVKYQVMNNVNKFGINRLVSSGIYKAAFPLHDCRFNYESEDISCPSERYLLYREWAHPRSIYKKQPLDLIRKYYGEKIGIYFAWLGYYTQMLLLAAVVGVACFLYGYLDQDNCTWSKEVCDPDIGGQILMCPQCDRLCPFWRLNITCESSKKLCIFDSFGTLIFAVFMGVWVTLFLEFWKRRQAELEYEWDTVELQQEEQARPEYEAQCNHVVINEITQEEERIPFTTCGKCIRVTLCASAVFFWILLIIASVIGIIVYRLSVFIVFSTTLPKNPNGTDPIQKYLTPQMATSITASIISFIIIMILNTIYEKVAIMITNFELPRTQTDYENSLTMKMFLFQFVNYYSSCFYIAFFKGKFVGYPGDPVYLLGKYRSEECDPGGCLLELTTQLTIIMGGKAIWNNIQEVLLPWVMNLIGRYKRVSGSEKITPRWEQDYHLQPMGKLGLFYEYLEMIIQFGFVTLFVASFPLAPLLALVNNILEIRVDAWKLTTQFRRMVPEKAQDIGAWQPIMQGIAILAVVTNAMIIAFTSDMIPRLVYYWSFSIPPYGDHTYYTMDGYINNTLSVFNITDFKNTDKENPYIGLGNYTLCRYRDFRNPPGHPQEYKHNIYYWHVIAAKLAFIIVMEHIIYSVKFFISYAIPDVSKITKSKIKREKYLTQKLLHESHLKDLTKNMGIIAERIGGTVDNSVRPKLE
The experiment can be described thus: Inside-out patch recording of 1PBC block, TMEM16F. It counts as cell-based. As to conditions: 300 µM Ca2+. How it is done:
HEK293T cells (ATCC CRL-1573) were maintained in Dulbecco’s modified Eagle’s medium (DMEM; Sigma-Aldrich) supplemented with 10 U ml^−1 penicillin, 0.1 mg ml^−1 streptomycin (Sigma-Aldrich), 2 mM L-glutamine (Sigma-Aldrich), and 10% FBS (Sigma-Aldrich) in a humidified atmosphere containing 5% CO2 at 37 °C. HEK293S GnTI^− cells (ATCC CRL-3022) were maintained in HyClone HyCell TransFx-H medium (GE Healthcare) supplemented with 10 U ml^−1 penicillin, 0.1 mg ml^−1 streptomycin, 4 mM L-glutamine, 0.15% poloxamer 188 (Sigma-Aldrich), and 1% FBS in an atmosphere containing 5% CO2 at 185 rpm at 37 °C. The ac splice variant of mouse TMEM16A (UniProt ID: Q8BHY3), mouse TMEM16B (UniProt ID: Q8CFW1), or mouse TMEM16F (UniProt ID: Q6P9J9) bearing a 3C cleavage site, a Venus YFP, a Myc tag, and a Streptavidin-binding peptide (SBP) downstream of the open reading frame in a modified pcDNA3.1 vector (Invitrogen) were used as described previously[21],[31]. Mutations were introduced using a modified QuikChange method[58] and were verified by sequencing.
HEK293T cells were transfected with 3–4 μg DNA per 6 cm Petri dish using the calcium phosphate co-precipitation method and were used within 24–96 h after transfection. Recordings were performed on inside-out patches excised from HEK293T cells expressing the construct of interest. Patch pipettes were pulled from borosilicate glass capillaries (O.D. 1.5 mm, I.D. 0.86 mm, Sutter Instrument) and were fire-polished with a microforge (Narishige) before use. Pipette resistance was typically 3–8 MΩ when filled with the recording solutions detailed below. Seal resistance was typically 4 GΩ or higher. Voltage-clamp recordings were made using Axopatch 200B, Digidata 1550, and Clampex 10.7 (Molecular Devices). Analog signals were filtered with the in-built 4-pole Bessel filter at 10 kHz and were digitized at 20 kHz. Solution exchange was achieved using a gravity-fed system through a theta glass pipette mounted on an ultra-fast piezo-driven stepper (Siskiyou). […] All recordings were performed at 20 °C.
A symmetrical ionic condition was used throughout. Stock solution with Ca^2+-EGTA contained 150 mM NaCl, 5.99 mM Ca(OH)2, 5 mM EGTA, and 10 mM HEPES at pH 7.40. Stock solution with EGTA contained 150 mM NaCl, 5 mM EGTA, and 10 mM HEPES at pH 7.40. Free Ca^2+ concentrations were adjusted by mixing the stock solutions at the required ratios calculated using the WEBMAXC program (http://web.stanford.edu/~cpatton/webmaxcS.htm). Patch pipettes were filled with the stock solution with Ca^2+-EGTA, which has a free Ca^2+ concentration of 1 mM. 1PBC (ChemBridge) stock was reconstituted in anhydrous DMSO (Sigma-Aldrich) at 100 mM and stored at −20 °C. Working solutions with 1PBC were prepared by serial dilution. Unless otherwise stated, experiments were performed at a saturating Ca^2+ concentration as shown in Supplementary Table 1 and the primary data were corrected for current rundown as described previously[21],[25].
Concentration-response relations, obtained from the ratio of the I-V plots before and after the application of the blocker, were fitted to the Hill equation,1 I/Imax=1/1+IC50/[blocker]^h where I/Imax is the normalized current responses, IC50 defines the concentration at which inhibition is at its half-maximum, and h is the Hill coefficient.

With `N#Cc1c(C(F)(F)F)cc(O)n2c1nc1ccccc12` [1PBC], for the setting “3 µM 1PBC, +80 mV, read-out: I/Imax”, the remaining activity at 3 µM is 100%. In addition, the remaining activity at 10 µM (10 µM 1PBC, +80 mV, read-out: I/Imax) worked out at 98.7%. In addition, for the setting “30 µM 1PBC, +80 mV, read-out: I/Imax”, the remaining activity at 30 µM turned out to be 101%. The remaining activity at 100 µM (100 µM 1PBC, +80 mV, read-out: I/Imax) is 100%. Moreover, the “Inhibition of the current mediated by the scramblase TMEM16F” value (within the same concentration range) is listed as “ineffective”.
